The subject of one assay is P. aeruginosa ATCC 27853. The assay can be described thus: In vivo efficacy in mouse blood infection model (neutropenic Swiss mice). The conditions noted are these: compound, free base 4 mg/kg intravenously 2 h after inoculation, blood at 4 h. The procedure: P. aeruginosa ATCC 27853, A. baumannii ATCC 19606 and K. pneumoniae FADDI-KP032 were subcultured on nutrient agar plates. One colony of each bacterial strain was dispersed in 10-mL CAMHB and incubated overnight. On day 2, an aliquot (0.2 mL) of each overnight culture suspension was dispersed in 20-mL CAMHB and incubated for 1.5-2.5 h for production of early log-phase growth bacterial culture. The bacteria in the early log-phase growth suspension were concentrated by centrifugation (3,220 g for 10 min) and re-suspended in sterile 0.9% saline for inoculation into mice. The bacterial cell concentration (colony forming unit [CFU]/mL) in saline was estimated by determining the optical density (OD) of the suspension at 600 nm, and confirmed by plating the suspension on nutrient agar plates. Swiss mice (22 to 28 g) were rendered neutropenic by injecting two doses of cyclophosphamide intraperitoneally, −4 day (150 mg/kg) and −1 day (100 mg/kg) prior to inoculation. Bloodstream infection was established by injecting intravenously 50 μL of early log-phase bacterial suspension (10^8-10^9 CFU/mL). The exact injection volume for each bacterial suspension was calculated based upon the OD value of the bacterial suspension and the desired inoculum for each isolate.
Solutions for administration of colistin, polymyxin B or the compounds were prepared at a concentration of 1 mg (free base) per mL in sterile 0.9% saline. At 2 h after inoculation, a mouse in the treatment groups was injected intravenously with one of the above solutions at 4 μL/g body weight (BW) (i.e. free base 4 mg/kg BW), while the same volume of saline was injected into the control mice. At 0 h or at 4 h after the administration of antibacterial drug or saline (control), animals were euthanised by inhalation of overdose isoflurane. The skin on the chest and fore-paws of each animal was thoroughly cleansed with 70% ethanol and Betadine®. The blood was collected via cardiac puncture using a 1-mL syringe rinsed with heparin (5,000 IU/mL), diluted serially in sterile 0.9% saline and plated on nutrient agar plates using a spiral plater.
The agar plates were incubated at 37° C. overnight. The bacterial colonies on the plate were counted and CFU/mL of the blood was calculated. The log10 CFU/mL of blood in each mouse was calculated. The in vivo activity of the compounds against the bacteria was calculated as the difference of the log10 CFU/mL values between the treated mice and the control mice at 4 h (Δ log=log10 (treated)CFU/mL−log10 (control)CFU/mL).
Any compound showing a decrease in bacterial loading (Δ log) of ≥2 at 4 h is considered to have good in vivo efficacy in this initial screening model.

The subject of a further assay is Acinetobacter baumannii. In outline: (§1)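 MICs were determined for the lipopeptides, tested as trifluoroacetic acid salts, by broth microdilution in cation-adjusted Mueller-Hinton broth following CLSI standards (M100-S18). Polymyxin B sulphate served as the control.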
Another assay relates to Klebsiella pneumoniae. In outline:
as §1

In a further assay the test system is Enterobacter cloacae. In outline: as §1
In another assay the test system is Pseudomonas aeruginosa. Summed up: as §1

In brackets after ≈: the same amount, converted by molar mass. Like-named read-outs stand apart in the source and are kept apart here. Positions of bridges follow the written chain, without caps; N, C: chain ends. Non-standard residues stand in square brackets, D forms with d. Residues, ends and D or L forms follow the SMILES beside them. *: point of attachment. Benzoyl(4-Ph) = O=C(c1ccc(-c2ccccc2)cc1)*; Phenylacetyl(4-Cl) = O=C(Cc1ccc(Cl)cc1)*; Dab = NCC[C@H](N)C(=O)O; Abu = CC[C@H](N)C(=O)O; Dap = NC[C@H](N)C(=O)O; Hexanoyl = CCCCCC(=O)*

A word on the MIC: it is the lowest concentration found to suppress growth. Lower therefore signals inhibition by little substance.

Take `CC[C@@H]1NC(=O)[C@@H](CC(C)C)NC(=O)[C@H](CCN)NC(=O)[C@@H](NC(=O)[C@H](CN)NC(=O)[C@@H](NC(=O)[C@H](CCN)NC(=O)c2ccc(-c3ccccc3)cc2)[C@@H](C)O)CCNC(=O)[C@H]([C@@H](C)O)NC(=O)[C@H](CCN)NC(=O)[C@H](CCN)NC1=O` [Compound 142] ({Benzoyl(4-Ph)}-[Dab]T[Dap][Dab][Dab][dL][Abu][Dab][Dab]T; lactam 4-C): the “Δ log (Treated-Control at 4 h)” value with P. aeruginosa ATCC 27853 is reported as −3.89 log10 CFU/mL. Moreover, the MIC is 1 µg/mL (≈ 0.857 µM) in the assay with Acinetobacter baumannii (A. baumannii ATCC 19606), 0.25 µg/mL (≈ 0.214 µM) with Klebsiella pneumoniae (K. pneumoniae FADDI-KP032) and 1 µg/mL (≈ 0.857 µM) with Pseudomonas aeruginosa (P. aeruginosa ATCC 27853). Also, in the assay with Acinetobacter baumannii (Acinetobacter baumannii ATCC 17978, broth microdilution in CAMHB, TFA salt), the “Minimum inhibitory concentration (MIC), Ab ATCC 17978” value was 0.5 µg/mL. Besides, the “Minimum inhibitory concentration (MIC), Ab ATCC 19606” value in the assay on Acinetobacter baumannii (Acinetobacter baumannii ATCC 19606, broth microdilution in CAMHB, TFA salt) stood at 1 µg/mL. Besides, the “Minimum inhibitory concentration (MIC), Ab FADDI-AB034” value in the assay on Acinetobacter baumannii (Acinetobacter baumannii FADDI-AB034, broth microdilution in CAMHB, TFA salt) worked out at 0.25 µg/mL. The “Minimum inhibitory concentration (MIC), Ec FADDI-EC001” value with Enterobacter cloacae (Enterobacter cloacae FADDI-EC001, broth microdilution in CAMHB, TFA salt) is 0.25 µg/mL. In the assay on Enterobacter cloacae (Enterobacter cloacae FADDI-EC003, broth microdilution in CAMHB, TFA salt), the “Minimum inhibitory concentration (MIC), Ec FADDI-EC003” value is 1 µg/mL. In the assay on Enterobacter cloacae (Enterobacter cloacae FADDI-EC006, broth microdilution in CAMHB, TFA salt), the “Minimum inhibitory concentration (MIC), Ec FADDI-EC006” value came out at 0.5 µg/mL. Also, the “Minimum inhibitory concentration (MIC), Pa ATCC 27853” value in the assay on Pseudomonas aeruginosa (Pseudomonas aeruginosa ATCC 27853, broth microdilution in CAMHB, TFA salt) stood at 1 µg/mL. Also, in the assay with Pseudomonas aeruginosa (Pseudomonas aeruginosa FADDI-PA022, broth microdilution in CAMHB, TFA salt), the “Minimum inhibitory concentration (MIC), Pa FADDI-PA022” value stood at 1 µg/mL. For the same compound, the “Minimum inhibitory concentration (MIC), Pa FADDI-PA025” value in the assay on Pseudomonas aeruginosa (Pseudomonas aeruginosa FADDI-PA025, broth microdilution in CAMHB, TFA salt) was 1 µg/mL.

In the case of `CC[C@@H]1NC(=O)[C@@H](CC(C)C)NC(=O)[C@H](CCN)NC(=O)[C@@H](NC(=O)[C@H](CN)NC(=O)[C@@H](NC(=O)[C@H](CCN)NC(=O)Cc2ccc(Cl)cc2)[C@@H](C)O)CCNC(=O)[C@H]([C@@H](C)O)NC(=O)[C@H](CCN)NC(=O)[C@H](CCN)NC1=O` [Compound 77] ({Phenylacetyl(4-Cl)}-[Dab]T[Dap][Dab][Dab][dL][Abu][Dab][Dab]T; lactam 4-C), the “Δ log (Treated-Control at 4 h)” value in the assay on P. aeruginosa ATCC 27853 was −2.28 log10 CFU/mL. Moreover, in the assay with Acinetobacter baumannii, the MIC was 4 µg/mL (≈ 3.51 µM); the “Minimum inhibitory concentration, Ab A ATCC 17978” value was found to be 0.5 µg/mL (≈ 0.439 µM); the “Minimum inhibitory concentration, Ab ATCC 19606” value worked out at 4 µg/mL (≈ 3.51 µM); the “Minimum inhibitory concentration, Ab FADDI-AB034” value is 1 µg/mL (≈ 0.877 µM). The same compound showed an MIC against Klebsiella pneumoniae below 0.125 µg/mL. In the assay on Enterobacter cloacae, the “Minimum inhibitory concentration, Ec FADDI-EC001” value was 0.5 µg/mL (≈ 0.439 µM); the “Minimum inhibitory concentration, Ec FADDI-EC003” value was below 0.125 µg/mL; the “Minimum inhibitory concentration, Ec FADDI-EC006” value stood at 0.25 µg/mL (≈ 0.219 µM). In the assay on Pseudomonas aeruginosa, the MIC worked out at 0.25 µg/mL (≈ 0.219 µM); the “Minimum inhibitory concentration, Pa ATCC 27853” value was 0.25 µg/mL (≈ 0.219 µM); the “Minimum inhibitory concentration, Pa FADDI-PA022” value stood at 0.5 µg/mL (≈ 0.439 µM); the “Minimum inhibitory concentration, Pa FADDI-PA025” value was determined as 4 µg/mL (≈ 3.51 µM).

As to `CCCCCC(=O)N[C@@H](CCN)C(=O)N[C@H](C(=O)N[C@H](CO)C(=O)N[C@H]1CCNC(=O)[C@H]([C@@H](C)O)NC(=O)[C@H](CCN)NC(=O)[C@H](CCN)NC(=O)[C@H]([C@@H](C)O)NC(=O)[C@@H](CC(C)C)NC(=O)[C@H](CCN)NC1=O)[C@@H](C)O` [Compound 8] (Hexanoyl-[Dab]T[dS][Dab][Dab][dL]T[Dab][Dab]T; lactam 4-C), the “Δ log (Treated-Control at 4 h)” value in the assay with P. aeruginosa ATCC 27853 is given as −0.05 log10 CFU/mL. Besides, in the assay on Acinetobacter baumannii, the MIC was 2 µg/mL (≈ 1.81 µM); the “Minimum inhibitory concentration, Ab A ATCC 17978” value was 2 µg/mL (≈ 1.81 µM); the “Minimum inhibitory concentration, Ab ATCC 19606” value came out at 2 µg/mL (≈ 1.81 µM); the “Minimum inhibitory concentration, Ab FADDI-AB034” value turned out to be 1 µg/mL (≈ 0.907 µM). Further, the MIC in the assay with Klebsiella pneumoniae was found to be 1 µg/mL (≈ 0.907 µM). Moreover, in the assay on Enterobacter cloacae, the “Minimum inhibitory concentration, Ec FADDI-EC001” value stood at 0.25 µg/mL (≈ 0.227 µM); the “Minimum inhibitory concentration, Ec FADDI-EC003” value was 0.5 µg/mL (≈ 0.454 µM); the “Minimum inhibitory concentration, Ec FADDI-EC006” value was determined as 0.25 µg/mL (≈ 0.227 µM). In the assay with Pseudomonas aeruginosa, the MIC stood at 4 µg/mL (≈ 3.63 µM); the “Minimum inhibitory concentration, Pa ATCC 27853” value amounted to 4 µg/mL (≈ 3.63 µM); the “Minimum inhibitory concentration, Pa FADDI-PA022” value turned out to be 8 µg/mL (≈ 7.26 µM); the “Minimum inhibitory concentration, Pa FADDI-PA025” value was above 32 µg/mL.
